Row | Compound | melting point [°C]
1 | CN(C)C1CCC(Nc2nc3cc4c(cc3nc2-c2ccccn2)CCC4)CC1 (stereo not given) | 158 to 161
2 | CCCc1c(OCCCOc2cccc3c2CCCC3)ccc2c1OC(CCC(=O)OC)(CCC(=O)N1CCCC1)CC2=O (stereo not given) | 106 to 107
3 | O=C(NCCc1ccccn1)c1ccccc1-c1ccccc1CNS(=O)(=O)c1cccc(F)c1 | 123
4 | Clc1ccc(-c2nc(Cl)c3ccccc3n2)cc1 | 166 to 167
5 | COc1ccc(NC(=O)C2=C(O)c3ccccc3S(=O)(=O)N2C)ccc1=O | 215 to 218
6 | CCCCCCCCCCCCC(=O)CC | 84 to 86
7 | CCCCc1cc2cc(NS(C)(=O)=O)ccn2c1C(=O)c1ccc(OCCCN(CCCC)CCCC)cc1 | 87 to 88
8 | CN1C(=O)C(c2cccc(-c3cccnc3F)c2)(c2cnn(CCF)c2)N=C1N (stereo not given) | 195 to 197
9 | CCN1C(=O)C(=C(C)O)SC1=S | 93
10 | O=C(Nc1ccc(-n2nc(C(F)(F)F)cc2C(F)(F)F)nc1)c1ccccc1Cl | 156 to 159
11 | CCCCOCCOc1ccc(-c2ccc3c(c2)C=C(C(=O)Nc2ccc(CSc4nnc(C)o4)cc2)CCN3CC(C)C)cc1 | 107 to 109
12 | CCc1nn(C2CN(C(C)C)C2)c2c(=O)[nH]c(-c3cc(S(C)(=O)=O)ccc3OCC(C)C)nc12 | 206 to 209
13 | CC(=O)Oc1ccc(Cl)nc1 | 45 to 47
14 | O=C1CCCC(=O)C1C(=O)c1ccccc1[N+](=O)[O-] | 132 to 135
15 | COc1ccccc1-c1nn(C(C)(C)C(=O)N(C)C)cc1C | 146 to 148
16 | COC(=O)C1CC(C(CC(O)C(CC2CCCCC2)NC(=O)C(Cc2c[nH]cn2)NC(=O)C(Cc2ccccc2)NC(=O)OC(C)(C)C)C(C)C)OC1=O (stereo not given) | 95
17 | CC(C)c1nc(C(C)C)c(CC=Cc2ccccc2)c(-c2ccc(F)cc2)c1CO | 72 to 73
18 | C=CCC1NC(=O)C1C(C)(C)O (stereo not given) | 144
19 | O=C1NC2Cc3ccccc3C2O1 (stereo not given) | 205 to 206
20 | Cc1c(C)c2c(c(C)c1N)CC(C)(CSc1ccncc1)O2 (stereo not given) | 96 to 97
21 | CCCCc1nc2c(N)nc3ccc(O)cc3c2n1CCCCNS(=O)(=O)c1ccccc1 | 219 to 223
22 | CCCc1c(COc2ccc(Cc3nnn(Cc4nnn[nH]4)n3)cc2)ccc(C(C)=O)c1O | 137 to 139
23 | O=C(O)CN(CC(=O)O)C(=O)C(=O)c1ccc(OCCCCCCCCCCCCOc2ccccc2)cc1 | 130 to 132
24 | O=C1NCCN1c1ccc(S(=O)(=O)Nc2cccc(Br)c2)cc1 | 184 to 185
25 | CC1(C)CCC(C)(C)c2cc(CCc3ncccn3)c(C=O)cc21 | 78 to 84.5

Row | Compound | melting point [°C]
26 | N#Cc1c(Br)c(Br)n(C(=O)Oc2ccccc2)c1Br | 128 to 129
27 | CC(C)(O)Cn1c(COc2ccccc2)nc2c(N)nc3ccccc3c21 | 200 to 201
28 | OC(c1ccccc1)(c1ccccc1)c1ccccc1Cl | 87
29 | COc1ccccc1Oc1ccc([N+](=O)[O-])cc1C(=O)O | 162 to 165
30 | CN1C(=O)CC(C(=O)Nc2nccs2)C(=O)c2ccc(Cl)cc21 (stereo not given) | 238 to 240
31 | Cc1noc(NS(=O)(=O)c2ccccc2-c2ccc(-c3ncco3)cc2CC(=O)NC(C)(C)C)c1C | 117 to 123
32 | Cc1cc(C2=NNC(C)Cc3cc4c(cc32)OCO4)ccc1[N+](=O)[O-] (stereo not given) | 144 to 147
33 | CCCCC(C)n1ncc(-c2ccc(S(C)(=O)=O)cc2)c(-c2ccc(F)cc2)c1=O (stereo not given) | 79 to 80
34 | CC(C)=NOc1ccc([N+](=O)[O-])cc1 | 104 to 106
35 | COc1ccc(C2Sc3c(ccc4ccccc34)N(CCN(C)C)C(=O)C2OC(C)=O)cc1 (stereo not given) | 122 to 124
36 | COC(=O)c1[nH]c2ccccc2c1Oc1ccccc1[N+](=O)[O-] | 201 to 202
37 | CCCn1nc(C(C)C)cc1Cc1ccc(-c2ccccc2-c2nnn[nH]2)cc1 | 147 to 149
38 | O=C1C(Cl)=C(c2ccccc2)C(=O)N1c1ccc(Cl)cc1 | 116 to 117
39 | NNC(=O)c1ncn2c1[C@@H]1CCCN1C(=O)c1sccc1-2 | > 260
40 | CS(=O)(=O)c1ccc(-c2cnn(-c3ccc(F)c(Cl)c3)c(=O)c2-c2ccc(F)cc2)cc1 | 155 to 157
41 | CCCn1cc2c(C3C(=O)Nc4ccc(Br)cc43)nc(NCC(O)CO)nc2n1 (stereo not given) | 295 to 297
42 | NC(=O)c1c[nH]c2cccc(OCc3ccccc3)c12 | 176
43 | O=C(CCC(=O)c1ccccc1)NC1CCCCC1 | 109 to 111
44 | CCCCOc1ccc(N2CCN(c3cccc(C)c3)CC2)nn1 | 105
45 | Cn1cc(C(=O)NCc2ccc(Cl)cc2)c(=O)c2cc(CN3CCCSCC3)ccc21 | 166 to 167
46 | CC(=O)Nc1ccc2c(c1)c(-c1cc3cccnc3[nH]1)cn2C | 220 to 221
47 | COCc1ncc(C(=O)O)s1 | 131
48 | O=C1CN2CCOC2(c2ccccc2F)c2cc(Cl)ccc2N1 (stereo not given) | 183 to 184
49 | CCc1c(-c2ccccc2)nc(C(C)C)c(C#CI)c1-c1ccc(F)cc1 | 117 to 119
50 | COc1ccccc1OCCCCCOc1ccc(C(=N)N)cc1 | 96 to 98

Row | Compound | melting point [°C]
51 | COc1ccc(C(=O)c2ccsc2)cc1 | 58 to 61
52 | O=C(O)CCOC(c1ccccc1)(c1ccccc1)c1ccccc1 | 159 to 161
53 | CCn1c2c(nc(-c3ccc(Cl)cc3)c1=O)CCCC2 | 110 to 113
54 | O=C(O)c1cccc2c1CC(c1csc(-c3ccncc3)n1)C(=O)N2 (stereo not given) | > 250
55 | CCOC(=O)c1cc(=O)c2cc(C(=O)OCC)c(C(=O)OCC)nc2o1 | 106
56 | COC(=O)c1cc(O)c2nc(C)n(C)c2c1 | 286
57 | COc1ccc2c(c1)SC(C#N)C(=O)CO2 (stereo not given) | 132 to 133
58 | O=C(O)Cc1ccc([N+](=O)[O-])c(C(=O)c2ccc(Cl)cc2)c1 | 182 to 183
59 | O=C(O)C(=O)c1ccc(OCCCNC(=O)c2ccc3ccccc3c2)cc1 | 169 to 170
60 | Cc1c(NC(=O)c2ccc(C#CC3(O)CCC3)cc2)ccc2cc(CNCC(C)(C)C)n(C)c12 | 232 to 233
61 | COC(=O)C#CC(=O)c1cccc(OC)c1 | 32 to 34
62 | COc1ccc2c(c1)C13CCN(C)C(C2)C1OC(C)(C)OC3 (stereo not given) | 132 to 133
63 | COn1cc(C(=O)O)c(=O)c2cc3cc(F)c(F)cc3nc21 | 325 to 327
64 | CC(C)c1nc(CCOCc2ccccc2)n(CCO)c1Sc1cc(Cl)cc(Cl)c1 | 129 to 130
65 | Cc1ccsc1C(=O)Nc1ccc(I)cc1 | 141 to 142
66 | CCCCC(NC(=O)OCc1ccccc1)C(=O)Nc1n[nH]c(=S)s1 (stereo not given) | 169 to 171
67 | COC(=O)c1ccc(CNC(=NC#N)NCCNC(=O)c2nc(Cl)c(N)nc2N)cc1 | 190 to 195
68 | CC(C)(O)COc1c(-c2ccc(S(N)(=O)=O)cc2)cnn(-c2ccc(F)cc2)c1=O | 155 to 158
69 | CCCCCCCC(=O)c1ccc(CCC(C)(COC(C)=O)NC(C)=O)cc1 (stereo not given) | 88 to 89
70 | O=C(O)c1cc2ccc3[nH]ccc3c2[nH]1 | 248 to 250
71 | CCN(CCO)CC(C)N1c2ccccc2Sc2ccc(C(=S)NCc3ccccc3)cc21 (racemic) | 154
72 | Cc1oc(-c2ccccc2)nc1COc1ccc(C=CC=O)cc1F | 133 to 134
73 | CN1CNC(=O)NC1=O | 252 to 254
74 | COc1cccc(-c2ccc(O)cc2)c1 | 93 to 95
75 | COC(=O)c1ccc2cc(-c3cccc(OC)c3)oc2c1 | 150 to 152

Row | Compound | melting point [°C]
76 | CCOC(=O)C(CC)Oc1ccc(-c2coc3cc4c(cc3c2=O)OCO4)cc1 (stereo not given) | 119 to 121
77 | O=C(OCC1CC1)c1ncn2c1[C@@H]1CCCN1C(=O)c1cc(Cl)ccc1-2 | 146 to 148
78 | Nc1nnc2c3c(c(Cl)nn12)CCCC3 | 224 to 225
79 | Cn1c(C#N)ccc1CC(=O)O | 125 to 126
80 | Cc1nc2c3c(c(C(N)=O)cc2n1C)CCC(c1ccccc1)O3 (stereo not given) | 264 to 267
81 | COC(=O)C(COC(C)=O)C(=O)OC(C)(C)C (stereo not given) | 61 to 62
82 | O=C(c1ccc(F)nc1)N1CCC[C@H](c2nc(-c3ccc[nH]3)no2)C1 | 131 to 132
83 | CCOC(=O)c1c(Cl)nc2cc(OC)c(OC)cc2c1-c1ccc(OC)c(OC)c1 | 168 to 169
84 | N#Cc1c(N2CCN(C(=O)c3cccs3)CC2)c2cc(Cl)cnc2n(Cc2cccc(F)c2)c1=O | 204
85 | CCC(Oc1c(C)cc(C)cc1C)C(=O)OC1CC(O)C=C2C=CC(C)C(CCC3CC(O)CC(=O)O3)C21 (mixture of isomers) | 134 to 136
86 | COC(=O)c1scc(-c2ccccc2)c1S(=O)(=O)NC(=O)Nc1nc(OC)cc(OC)n1 | 225 to 227
87 | C=COCCn1c(CN2CCN(C)CC2)nc2ccccc21 | 65.5 to 67.5
88 | NS(=O)(=O)c1ccc(-n2cc(-c3ccccc3)cc2-c2ccc(F)cc2)cc1 | 192 to 194
89 | Cc1cnn2c(-c3cccc(-c4ccccc4C#N)c3)cnc2n1 | 211 to 216
90 | COc1c(N2CCC(n3ccnn3)C2)c(F)cc2c(=O)c(C(=O)O)cn(C3CC3)c12 (stereo not given) | 200 to 201
91 | COc1cccc(CC(=O)O)c1OCCCc1cn(-c2cccc(C(F)(F)F)n2)nc1C(C)C | 95 to 97
92 | C[C@H](c1ccccc1)n1c(=O)[nH]c2cc(Cl)cc(Cl)c2c1=O | 205 to 210
93 | O=C(Nc1ccc2[nH]cnc2c1)C(=O)N1CCC(Cc2ccc(F)cc2)CC1 | 104 to 110
94 | Cc1cc2c(c(C)c1NC(=O)OC(C)(C)C)CCO2 | 121 to 122
95 | CONC(=O)Nc1ccc(-c2sc3c(c2CN(C)CCc2ccccn2)c(=O)n(-c2ccccn2)c(=O)n3Cc2c(F)cccc2F)cc1 | 194 to 196
96 | NC(=O)c1ccc(OCc2ccccc2)cc1CCN1CCNCC1 | 116 to 118
97 | CC(=O)c1cc(F)c(N)c(C#N)c1F | 182 to 184
98 | Cc1ccc(N2CCN(CCC3CN(C)C(=O)O3)CC2)cc1 (stereo not given) | 96 to 97
99 | Cc1nc(Sc2ccccc2)sc1C(=O)O | 187 to 188
100 | CS(=O)(=O)c1ccc(-c2cnn(Cc3ccc(O)cc3)c(=O)c2-c2ccc(F)cc2)cc1 | 225 to 226
